Measured values: patent publication US6350747B1, “3-(anilinomethylene) oxindoles” (Glaxo Wellcome Inc., priority 1999, dated 2002)
Where two headings read alike, the source gives them in different places.

How the values were obtained:
HUVEC cells [1] = test: HUVEC BrdU incorporation, bFGF stimulation; assay type: cell-based; conditions: Homo sapiens, 0.3 ng/ml bFGF, 72 hrs, read-out: Inhibition of BrdU incorporation in HUVEC cells, BFGF Stimulation, IC50
Tie-2 = target: T1, Tie-2 (Homo sapiens, UniProt Q02763); test: Tie-2 substrate phosphorylation assay; assay type: biochemical
T1 construct: The kinase domain of the enzyme was purified to homogeneity from a baculovirus expression system; made in house
T1 sequence (Q02763 824-1096 limits assumed, species assumed): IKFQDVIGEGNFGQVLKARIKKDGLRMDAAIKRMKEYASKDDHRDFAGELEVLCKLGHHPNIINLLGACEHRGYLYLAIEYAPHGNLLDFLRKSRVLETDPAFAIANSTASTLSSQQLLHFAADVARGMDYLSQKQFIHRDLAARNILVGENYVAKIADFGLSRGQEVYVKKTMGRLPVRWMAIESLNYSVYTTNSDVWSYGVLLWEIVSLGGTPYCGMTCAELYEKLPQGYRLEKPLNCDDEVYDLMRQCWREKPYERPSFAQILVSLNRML

HUVEC cells [2] = test: HUVEC BrdU incorporation, VEGF stimulation; assay type: cell-based; conditions: Homo sapiens, 20 ng/ml VEGF, 72 hrs, read-out: Inhibition of BrdU incorporation in HUVEC cells, VEGF stimulation, IC50
VEGFR-2 = target: T2, VEGFR-2 (Homo sapiens, UniProt P35968); test: VEGFR-2 substrate phosphorylation assay; assay type: biochemical
T2 construct: The kinase domain of the enzyme was purified to homogeneity from a baculovirus expression system; made in house
T2 sequence (P35968 834-1162 limits assumed, species assumed): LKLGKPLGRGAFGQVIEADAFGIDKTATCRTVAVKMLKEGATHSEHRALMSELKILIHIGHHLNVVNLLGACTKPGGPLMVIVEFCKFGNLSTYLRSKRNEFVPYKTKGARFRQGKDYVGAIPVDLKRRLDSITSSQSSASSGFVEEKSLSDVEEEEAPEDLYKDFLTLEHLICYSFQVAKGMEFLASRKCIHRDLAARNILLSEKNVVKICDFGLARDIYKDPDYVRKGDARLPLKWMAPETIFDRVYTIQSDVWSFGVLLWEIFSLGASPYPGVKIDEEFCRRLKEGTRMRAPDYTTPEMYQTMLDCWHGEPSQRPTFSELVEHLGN

c-fms = target: T3, c-fms (Homo sapiens, UniProt P07333); test: c-fms protein kinase assay; assay type: biochemical; conditions: read-out: c-fms kinase inhibition IC50
T3 construct: The c-fms intracellular domain was expressed from a baculovirus expression system, as an amino-terminal GST fusion protein; GST (N); made in house
T3 sequence (P07333 539-972 limits assumed): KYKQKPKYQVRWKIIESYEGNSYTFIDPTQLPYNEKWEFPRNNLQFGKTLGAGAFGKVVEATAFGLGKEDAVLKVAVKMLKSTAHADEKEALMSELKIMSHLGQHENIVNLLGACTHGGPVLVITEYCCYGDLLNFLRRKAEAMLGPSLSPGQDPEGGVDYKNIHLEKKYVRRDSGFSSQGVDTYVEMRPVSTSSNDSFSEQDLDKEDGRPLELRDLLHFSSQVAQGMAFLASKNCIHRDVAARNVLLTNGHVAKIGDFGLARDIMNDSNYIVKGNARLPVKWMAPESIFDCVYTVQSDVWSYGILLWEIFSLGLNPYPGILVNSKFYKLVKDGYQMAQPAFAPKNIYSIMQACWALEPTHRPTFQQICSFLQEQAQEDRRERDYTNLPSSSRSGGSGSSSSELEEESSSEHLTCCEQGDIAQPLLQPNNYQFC
Experimental: c-fms protein kinase assays utilized the peptide substrate, biotin-EAl[…]-NH2, as the phosphoryl group acceptor. The c-fms intracellular domain was expressed from a baculovirus expression system, as an amino-terminal GST fusion protein, and purified to homogeneity using Glutathione agarose from Sigma Chemical Co. Maximum activation of the enzyme was achieved by preactivation at room temperature for 120 min in the presence of 100 μM ATP and 15 mM MgCl2. This enzyme stock was diluted to 150 nM prior to using in the assay. Typically assays were performed in white, opaque, 96-well plates in a 45 ul assay volume including 15 ul 6% DMSO, with or without compounds, 15 ul of the preactivated, diluted enzyme, and 15 ul of a substrate mixture. Reactions contained 50 mM HEPES, pH 7.5, 1.7 μM ATP, 15 mM MgCl2, […] peptide, 2.5 μM DTT, 50 mM NaCl and 0.15 uCi/assay [^32P]ATP. The controls were reactions in the presence (negative controls) or absence (positive controls) of 50 mM EDTA. Reactions were allowed to proceed for 90 min at room temperature. The reaction products were quantified using Scintillation Proximity technolgy. The reactions were quenched by the addition of 200 ul of a solution containing 0.3 mg streptavidin SPA beads from Amersham, 50 mM EDTA, 0.1% TX-100, 50 uM ATP, in PBS, pH7.2 (phosphate buffered solution). Plates were sealed and counted in a Packard Topcount scintillation counter. IC50 values were obtained by fitting raw data to the equation y=Vmax*(1−(x/(k+x))).

CDK2 = target: T4, CDK2 (Homo sapiens, UniProt P24941); test: CDK2 cyclin dependent protein kinase assay; assay type: biochemical; conditions: read-out: CDK2 kinase inhibition IC50
T4 construct: made in house
Experimental: Cyclin dependent protein kinase assays utilized the peptides Biotin-aminohexyl-[…] and Biotin-aminohexyl-[…]-NH2 as phosphoryl group acceptors. CDK1 and CDK2 were both expressed utilizing a baculovirus expression system and were partially purified to comprise 20-80% of total protein, with no detectable competing reactions present. Typically, assays were performed by incubating either enzyme (0.2-10 nM), with and without inhibitor, one of the two peptide substrates ([…]), [γ-^32P]ATP ([…]), and 10-20 mM Mg^2+ for periods of time generally within the range 10-120 min. Reactions were terminated with 0.2-2 volumes of either 20% acetic acid or 50-100 mM EDTA buffered to pH 7 (substrate consumption<20%). The buffer employed in enzyme assays was either 30 mM HEPES 7.4 containing 0.15 M NaCl and 5% DMSO, the buffer 50 mM MOPS 7.0 containing 0.15 M NaCl and 5% DMSO, or the buffer 100 mM HEPES pH 7.5 containing 0.1 mg/mL BSA and 5% DMSO. Inhibitors were diluted in 100% DMSO prior to addition into the assay. Detection of peptide phosphorylation was accomplished by scintillation counting following either collection of peptide onto phosphocellulose filters (for reactions stopped with acetic acid), collection of peptide in wells of 96 well plates coated with Streptavidin (Pierce) (reactions were stopped with EDTA), or addition of Avidin coated Scintillant impregnated beads (Scintillation Proximity Assays from Amersham, reactions were stopped with EDTA).

[3] = read-out: Tie-2 kinase inhibition IC50
[4] = read-out: VEGFR2 kinase inhibition IC50

| IC50 (Tie-2; [3]) [nM] | IC50 (VEGFR-2; [4]) [nM] | IC50 (c-fms) [nM] | IC50 (CDK2) [nM] | Structure (SMILES) | IC50 (HUVEC cells [1]) [nM] | IC50 (HUVEC cells [2]) [nM] | IC50 (Tie-2) [nM] | IC50 (VEGFR-2) [nM] |
| --- | --- | --- | --- | --- | --- | --- | --- | --- |
| > 100 | 1 to 10 |  |  | CCC1(c2ccc(N/C=C3\C(=O)Nc4ccc5ncccc5c43)cc2)CCC(=O)NC1=O (stereo not drawn) [Example 63, 3-Ethyl-3-(4-{(Z)-[(2-oxo-2,3dihydro-1H-pyrrolo[3,2-f]quinolin-1-ylidene)methyl]amino}phenyl)-2,6-piperidinedione] | 600 to 1000 | 10 to 500 |  |  |
| > 100 | 1 to 10 |  |  | Cc1cc(=O)[nH]n1-c1ccc(N/C=C2\C(=O)Nc3ccc4ncccc4c32)cc1 [Example 66, 1-{(Z)-[4-(5-Methyl-3-oxo-2,3-dihydro-1H-pyrazol-1-yl)anilino]methylidene}-1H-pyrrolo[3,2-f]quinolin-2(3H)-one] | > 5000 | 600 to 1000 |  |  |
| > 100 | 11 to 50 | > 100 | 11 to 50 | O=C1Nc2ccc3ncccc3c2/C1=C/Nc1ccc(Cc2ccncc2)cc1 [Example 30, 1-{(Z)-[4-(4-Pyridinylmethyl)anilino]methylidene}-1,3-dihydro-2H-pyrrolo[3,2-f]quinolin-2-one] | 1100 to 5000 | 10 to 500 |  |  |
| > 100 | 1 to 10 | > 100 |  | CCC1(c2ccc(N/C=C3\C(=O)Nc4ccc5ncsc5c43)cc2)CCC(=O)NC1=O (stereo not drawn) [Example 48, 3-Ethyl-3-(4-{(Z)-[(7-oxo-6,7dihydro-8H-[1,3]thiazolo[5,4-e]indol-8-ylidene)methyl]amino}phenyl)-2,6-piperidinedione] | 600 to 1000 | 10 to 500 |  |  |
| > 100 | 11 to 50 | > 100 | > 100 | O=C1Nc2ccc3ncccc3c2/C1=C/Nc1ccc(N2CCOCC2)cc1 [Example 29, 1-{(Z)-[4-(4-Morpholinyl)anilino]methylidene}-1,3-dihydro-2H-pyrrolo[3,2-f]quinolin-2-one] | > 5000 | 10 to 500 |  |  |
| > 100 | 11 to 50 |  |  | CCN(CC)CCS(=O)(=O)c1ccc(N/C=C2\C(=O)Nc3ccc4ncsc4c32)cc1 [Example 71, 8-[(Z)-(4-{[2-(Diethylamino)ethyl]sulfonyl}anilino)methylidene]-6H-[1,3]thiazolo[5,4-e]indol-7-one] | 10 to 500 | 10 to 500 |  |  |
| > 100 | 11 to 50 |  |  | CC(=O)N(C)c1ccc(N/C=C2\C(=O)Nc3ccc4ncsc4c32)cc1 [Example 58, N-Methyl-N-(4-{(Z)-[(7-oxo-6,7-dihydro-8H-[1,3]thiazolo[5,4-e]indol-8-ylidene)methyl]amino}phenyl)acetamide] | 1100 to 5000 | 10 to 500 |  |  |
|  |  |  |  | CCN(CC)CCS(=O)(=O)c1ccc(N/C=C2\C(=O)Nc3ccc4ncccc4c32)cc1 [Example 72, 1-[(Z)-(4-{[2-(Diethylamino)ethyl]sulfonyl}anilino)methylidene]-1H-pyrrolo[3,2-f]quinolin-2(3H)-one] | 10 to 500 | 10 to 500 | > 100 | 1 to 10 |
| > 100 | 11 to 50 |  | 51 to 100 | O=C1Nc2ccc3ncccc3c2/C1=C/Nc1ccc(CCO)cc1 [Example 32, 1-{(Z)-[4-(2-Hydroxyethyl)anilino]methylidene}-1,3-dihydro-2H-pyrrolo[3,2-f]quinolin-2-one] | 1100 to 5000 | 10 to 500 |  |  |
| > 100 | 1 to 10 | > 100 | 11 to 50 | Cc1cc(=O)[nH]n1-c1ccc(N/C=C2\C(=O)Nc3ccc4ncsc4c32)cc1 [Example 55, 8-{(Z)-[4-(5-Methyl-3-oxo-2,3-dihydro-1H-pyrazol-1-yl)anilino]methylidene}-6H-[1,3]thiazolo[5,4-e]indol-7-one] | > 5000 | 1100 to 5000 |  |  |

| Structure (SMILES) | IC50 (Tie-2; [3]) [nM] | IC50 (VEGFR-2; [4]) [nM] | IC50 (c-fms) [nM] | IC50 (CDK2) [nM] | IC50 (HUVEC cells [1]) [nM] | IC50 (HUVEC cells [2]) [nM] | IC50 (Tie-2) [nM] | IC50 (VEGFR-2) [nM] |
| --- | --- | --- | --- | --- | --- | --- | --- | --- |
| NC(=O)c1ccc(N/C=C2\C(=O)Nc3ccc4ncsc4c32)cc1 [Example 24, 4-{[(Z)-(7-Oxo-6,7-dihydro-8H-[1,3]thiazolo[5,4-e]indol-8-ylidene)methyl]amino}benzamide] | > 100 |  | > 100 | 51 to 100 | > 5000 | 10 to 500 |  | 11 to 50 |
